Laboratory results published in patent US8673894B2 (Hoffmann-La Roche Inc., priority 2010, dated 2014).
Counter-ions that a name gives are not always drawn.

Assays:
Aβ40 = assay: Cellular Aβ-lowering assay; assay type: cell-based; details: HEK293 cells stably expressing human APP695, Aβ40 in supernatant by ELISA after 18-20 hrs; read-out: Cellular assay Abeta40 IC50
Procedure, shortened: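 HEK293 cells stably expressing human wild-type APP695 were treated with compound for 18-20 h at 37 °C in 0.8% v/v DMSO. Secreted Aβ40 in the supernatant was measured by sandwich ELISA (Aβ40 C-terminus-specific capture, HRP-4G8 detection, TMB read at 450 nm) and quantified against a pure Aβ peptide standard curve.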

[1] = target: T1, endogenous cellular BACE2 (Rattus norvegicus, UniProt Q6IE75); assay: Assay for BACE inhibition by measuring cellular TMEM27 cleavage; assay type: cell-based; details: INS-TMEM27 (INS1e-derived) cells, shed human TMEM27 in supernatant by ELISA
T1 construct: endogenous cellular BACE2 in the Ins1e rat cell line; endogenous in cells; host or cells: INS-TMEM27 (INS1e-derived rat insulinoma cell line with doxycycline-inducible full-length human TMEM27)
T1 sequence (Q6IE75 63-514): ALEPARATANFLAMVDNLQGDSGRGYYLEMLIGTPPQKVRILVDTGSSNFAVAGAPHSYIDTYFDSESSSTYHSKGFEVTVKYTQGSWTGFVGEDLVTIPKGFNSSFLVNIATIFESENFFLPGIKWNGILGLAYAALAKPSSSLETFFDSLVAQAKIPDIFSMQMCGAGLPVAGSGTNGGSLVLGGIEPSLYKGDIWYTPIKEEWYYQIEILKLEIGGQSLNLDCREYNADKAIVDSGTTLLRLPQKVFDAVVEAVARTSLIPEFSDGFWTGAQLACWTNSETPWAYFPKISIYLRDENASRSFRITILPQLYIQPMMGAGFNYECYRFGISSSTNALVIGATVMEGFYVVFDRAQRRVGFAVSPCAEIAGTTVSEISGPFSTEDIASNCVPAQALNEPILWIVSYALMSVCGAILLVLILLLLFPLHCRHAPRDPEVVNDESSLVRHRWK
Procedure, shortened: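 INS1e rat cells with doxycycline-inducible human TMEM27 get inhibitor 2 h before doxycycline (500 ng/ml final), then 46 h further at 37° C. Shed TMEM27 in the supernatant is measured by sandwich ELISA, and the EC50 comes from a curve fit of the ELISA signal.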

Structure (SMILES)	IC50 (Aβ40) [nM]	IC50 [1] [nM]
CC[C@]1(c2cc(NC(=O)c3ncc(F)cc3C)ccc2F)N=C(N)COCC1(F)F [Example 102, (R)-N-(3-(3-Amino-5-ethyl-6,6-difluoro-2,5,6,7-tetrahydro-1,4-oxazepin-5-yl)-4-fluorophenyl)-5-fluoro-3-methylpicolinamide]	33	2200
Cc1conc1C(=O)Nc1ccc(F)c([C@@]2(C)N=C(N)COCC2(F)F)c1 [Example 104, (R)-N(R)-N-(3-(3-Amino-6,6-difluoro-5-methyl-2,5,6,7-tetrahydro-1,4-oxazepin-5-yl)-4-fluorophenyl)-4-methylisoxazole-3-carboxamide]	160	95.6
C[C@]1(c2cc(NC(=O)c3nn(CC(F)(F)F)cc3Cl)ccc2F)N=C(N)COCC1(F)F [Example 106, (R)-N-(3-(3-Amino-6,6-difluoro-5-methyl-2,5,6,7-tetrahydro-1,4-oxazepin-5-yl)-4-fluorophenyl)-4-chloro-1-(2,2,2-trifluoroethyl)-1H-pyrazole-3-carboxamide]	630	2170
CCc1n[nH]c(C(=O)Nc2ccc(F)c([C@@]3(C)N=C(N)COCC3(F)F)c2)c1C [Example 107, (R)-N-(3-(3-Amino-6,6-difluoro-5-methyl-2,5,6,7-tetrahydro-1,4-oxazepin-5-yl)-4-fluorophenyl)-3-ethyl-4-methyl-1H-pyrazole-5-carboxamide]	790	886
CC1(C)OCC(N)=N[C@](C)(c2cc(NC(=O)c3ccc(Cl)cn3)ccc2F)C1(F)F [Example 110, (R)-N-(3-(3-amino-6,6-difluoro-5,7,7-trimethyl-2,5,6,7-tetrahydro-1,4-oxazepin-5-yl)-4-fluorophenyl)-5-chloropicolinamide]	0.8	9.03
CC1(C)OCC(N)=N[C@](C)(c2cc(NC(=O)c3ccc(C#N)cn3)ccc2F)C1(F)F [Example 111, (R)-N-(3-(3-amino-6,6-difluoro-5,7,7-trimethyl-2,5,6,7-tetrahydro-1,4-oxazepin-5-yl)-4-fluorophenyl)-5-cyanopicolinamide]	0.7	30.5
C[C@]1(c2cc(NC(=O)c3ncccc3OCC(F)(F)F)ccc2F)N=C(N)COC[C@@H]1F [Example 112, N-(3-((5R,6R)-3-amino-6-fluoro-5-methyl-2,5,6,7-tetrahydro-1,4-oxazepin-5-yl)-4-fluorophenyl)-3-(2,2,2-trifluoroethoxy)picolinamide]	69	129

Next, values leading:

IC50 (Aβ40) [nM]	IC50 [1] [nM]	Structure (SMILES)
2.9	307	C[C@]1(c2cc(NC(=O)c3cnc(OCF)cn3)ccc2F)N=C(N)COCC1(F)F [Example 103, (R)-N-(3-(3-Amino-6,6-difluoro-5-methyl-2,5,6,7-tetrahydro-1,4-oxazepin-5-yl)-4-fluorophenyl)-5-(fluoromethoxy)pyrazine-2-carboxamide formate]
13	378	C[C@]1(c2cc(NC(=O)c3cnc(C(F)F)cn3)ccc2F)N=C(N)COCC1(F)F [Example 105, (R)-N-(3-(3-Amino-6,6-difluoro-5-methyl-2,5,6,7-tetrahydro-1,4-oxazepin-5-yl)-4-fluorophenyl)-5-(difluoromethyl)pyrazine-2-carboxamide formate]
5.7	49.5	C[C@]1(c2cc(NC(=O)c3ccc(C(F)F)cn3)ccc2F)N=C(N)COCC1(F)F [Example 108, (R)-N-(3-(3-Amino-6,6-difluoro-5-methyl-2,5,6,7-tetrahydro-1,4-oxazepin-5-yl)-4-fluorophenyl)-5-(difluoromethyl)picolinamide formate]
1.9	143	COc1cnc(C(=O)Nc2ccc(F)c([C@@]3(C)N=C(N)COCC3(F)F)c2)cn1 [Example 109, (R)-N-(3-(3-Amino-6,6-difluoro-5-methyl-2,5,6,7-tetrahydro-1,4-oxazepin-5-yl)-4-fluorophenyl)-5-methoxypyrazine-2-carboxamide formate]
